Data published in the Kinase Knowledgebase extract (Sharma et al. 2016).

Target: EGFR (human) (UniProt P00533)
Sequence (P00533 whole entry, looked up): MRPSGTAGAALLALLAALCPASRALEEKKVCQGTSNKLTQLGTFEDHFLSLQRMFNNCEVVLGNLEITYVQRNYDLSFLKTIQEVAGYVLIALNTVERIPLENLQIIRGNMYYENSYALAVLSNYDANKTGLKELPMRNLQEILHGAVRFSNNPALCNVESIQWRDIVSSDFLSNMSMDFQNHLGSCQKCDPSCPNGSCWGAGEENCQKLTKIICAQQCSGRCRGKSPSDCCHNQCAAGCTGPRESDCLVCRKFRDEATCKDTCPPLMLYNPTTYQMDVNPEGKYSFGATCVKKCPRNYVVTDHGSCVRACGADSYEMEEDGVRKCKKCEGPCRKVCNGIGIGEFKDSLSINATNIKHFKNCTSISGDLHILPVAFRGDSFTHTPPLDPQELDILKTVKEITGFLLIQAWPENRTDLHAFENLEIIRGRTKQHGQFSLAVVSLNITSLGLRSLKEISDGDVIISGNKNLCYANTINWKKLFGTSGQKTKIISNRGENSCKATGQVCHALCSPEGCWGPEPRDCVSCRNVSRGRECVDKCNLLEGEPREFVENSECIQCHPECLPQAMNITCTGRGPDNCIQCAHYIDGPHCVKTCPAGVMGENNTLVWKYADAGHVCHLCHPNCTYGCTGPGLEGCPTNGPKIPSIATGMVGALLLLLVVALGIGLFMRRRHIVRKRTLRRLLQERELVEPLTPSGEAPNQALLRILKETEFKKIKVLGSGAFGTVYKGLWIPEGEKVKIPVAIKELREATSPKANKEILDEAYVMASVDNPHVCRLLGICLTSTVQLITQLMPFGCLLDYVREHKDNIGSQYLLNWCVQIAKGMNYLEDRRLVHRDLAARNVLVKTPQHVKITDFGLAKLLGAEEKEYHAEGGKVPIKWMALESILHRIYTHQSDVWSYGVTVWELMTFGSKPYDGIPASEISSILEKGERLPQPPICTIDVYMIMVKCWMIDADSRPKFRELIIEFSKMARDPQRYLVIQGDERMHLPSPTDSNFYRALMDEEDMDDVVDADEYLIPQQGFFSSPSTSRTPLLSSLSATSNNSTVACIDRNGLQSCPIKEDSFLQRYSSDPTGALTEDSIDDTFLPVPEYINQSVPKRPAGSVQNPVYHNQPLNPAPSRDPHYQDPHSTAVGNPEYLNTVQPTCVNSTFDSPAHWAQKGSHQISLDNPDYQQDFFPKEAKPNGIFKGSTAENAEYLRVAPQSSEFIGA

Compound	IC50 [µM]
Cc1cc(C(=O)N2CC[C@@H](N(C)C)C2)c(/C=C2\C(=O)Nc3cccc(-c4ccc(Cl)cc4)c32)[nH]1	> 20
Cc1cc(C(=O)NCCn2ccnn2)c(/C=C2\C(=O)Nc3cccc(-c4ccccc4F)c32)[nH]1	> 20
CCN(CC)CCNC(=O)c1c[nH]c(/C=C2\C(=O)Nc3cccc(-c4ccc(Br)cc4)c32)c1C	> 20
Cc1cc(C(=O)NCCn2ccnn2)c(/C=C2\C(=O)Nc3cccc(-c4cccc(Cl)c4)c32)[nH]1	> 20
Cc1cc(C(=O)N2CC[C@H](N(C)C)C2)c(/C=C2\C(=O)Nc3cccc(-c4ccc(F)cc4)c32)[nH]1	> 20
COc1ccc(-c2cccc3c2/C(=C/c2[nH]c(C)cc2C(=O)NCCN2CCCC2)C(=O)N3)cc1	> 20
Cc1cc(C(=O)NCCN2CCCC2)c(/C=C2\C(=O)Nc3cccc(-c4ccc(Br)cc4)c32)[nH]1	> 20
CCN(CC)CCNC(=O)c1c(C)[nH]c(/C=C2\C(=O)Nc3cccc(-c4ccccc4)c32)c1C	> 20
Cc1cc(C(=O)N2C[C@@H](C)N[C@@H](C)C2)c(/C=C2\C(=O)Nc3cccc(-c4ccc(Cl)cc4)c32)[nH]1	> 20
Cc1cc(C(=O)NCCN2CCCC2)c(/C=C2\C(=O)Nc3cccc(-c4ccc(F)c(Cl)c4)c32)[nH]1	> 20

The remaining lines, values ahead:

IC50 [µM]	Compound
> 20	Cc1[nH]c(/C=C2\C(=O)Nc3cccc(-c4ccc(F)cc4)c32)c(C)c1C(=O)N1CCN(C)CC1
> 20	CCN(CC)CCNC(=O)c1c(C)[nH]c(/C=C2\C(=O)Nc3cccc(-c4cccc(OC)c4)c32)c1C
> 20	Cc1[nH]c(/C=C2\C(=O)Nc3cccc(-c4ccc(Cl)cc4)c32)c(C)c1C(=O)N1CCN(C)CC1
> 20	Cc1[nH]c(/C=C2\C(=O)Nc3cccc(-c4cccc(C(F)(F)F)c4)c32)c(C)c1C(=O)N1CCN(C)CC1
> 20	Cc1[nH]c(/C=C2\C(=O)Nc3cccc(-c4ccccc4F)c32)c(C)c1C(=O)N1CCN(C)CC1
> 20	COc1cccc(-c2cccc3c2/C(=C/c2[nH]c(C)c(C(=O)NCCn4ccnn4)c2C)C(=O)N3)c1
> 20	Cc1[nH]c(/C=C2\C(=O)Nc3cccc(-c4ccc(Br)cc4)c32)c(C)c1C(=O)N1C[C@@H](C)N[C@@H](C)C1
> 20	CCN(CC)CCNC(=O)c1c(C)[nH]c(/C=C2\C(=O)Nc3cccc(-c4ccc(OC(F)(F)F)cc4)c32)c1C
> 20	Cc1cc(C(=O)N2C[C@@H](C)N[C@@H](C)C2)c(/C=C2\C(=O)Nc3cccc(-c4cccc(Cl)c4)c32)[nH]1
> 20	Cc1[nH]c(/C=C2\C(=O)Nc3cccc(-c4cccc(F)c4)c32)c(C)c1C(=O)NCCn1ccnn1
> 20	COc1ccc(-c2cccc3c2/C(=C/c2[nH]c(C)c(C(=O)N4C[C@@H](C)N[C@@H](C)C4)c2C)C(=O)N3)cc1
> 20	Cc1[nH]c(/C=C2\C(=O)Nc3cccc(-c4ccc(Br)cc4)c32)c(C)c1C(=O)N1CCN(C)CC1
> 20	COc1cccc(-c2cccc3c2/C(=C/c2[nH]c(C)c(C(=O)NCCN(C(C)C)C(C)C)c2C)C(=O)N3)c1
> 20	Cc1cc(C(=O)N2CC[C@H](N(C)C)C2)c(/C=C2\C(=O)Nc3cccc(-c4cccc(Cl)c4)c32)[nH]1
